In PMC4815073, “Targeting of tubulin polymerization and induction of mitotic blockage by Methyl 2-(5-fluoro-2-hydroxyphenyl)-1H-benzo[d]imidazole-5-carboxylate (MBIC) in human cervical cancer HeLa cell” (Journal of Experimental & Clinical Cancer Research : CR, 2016):

Experiments:
[1] = test system: HepG-2 cells; assay: MTT cytotoxicity assay, HepG-2; assay type: cell-based, human; details: for IC50: Homo sapiens, HepG2, MTT
From the text: (§1) The human cervical cancer cell-line, HeLa (CCL-2.2; ATCC, Manassas, VA), HCT-116 (CCL-247; ATCC, Manassas, VA), A549 (CCL-185; ATCC, Manassas, VA), HepG-2 (HB-8065; ATCC, Manassas, VA) and WRL-68 (CL-48; ATCC, Manassas, VA), were obtained from American Type Culture Collection (ATCC). HeLa, A549, HepG2 and WRL68 cells were maintained in Dulbecco’s Modified Eagle Medium (DMEM, Life Technologies, Inc, Rockville, MD). HCT-116 was obtained in McCoy’s 5a Medium Modified (Life Technologies, Inc, Rockville, MD) supplemented with 10 % fetal bovine serum and 1 % penicillin/streptomycin. Cells were incubated at 37 °C in a humidified cell culture 5 % CO2 incubator. Cells were passaged until reaching 70-80-% confluency for experimental purposes.
(§2) Cytotoxicity of MBIC was estimated by MTT assay. Briefly, 1 × 10^4 cells/well were seeded in a 96-well plate and incubated at 37 °C in 5 % CO2. After 24 h, cells were treated with different concentrations (0.02, 0.04, 0.1, 0.2, 0.4, 0.8, 1.5, 3, 6, 12, 25, 50 μM) of MBIC. 0.01 % DMSO was used as vehicle control. Cells were incubated for 24 and 48 h at 37 °C. Subsequently, 50 μl/well of 3-(4,5-dimethylthiazol-2-yl)-2,5-diphenyltetrazolium bromide (MTT, 2 mg/ml) was added and incubated for 2 h. After the incubation, the media was discarded and 100 μl DMSO was replaced into each well to dissolve the formazan crystal. The colorimetric assay was quantified at 570 nm wavelength using Chameleon V microplate reader (Hidex, Turku, Finland). The anti-proliferation activity of MBIC was expressed as an IC50 value. The percentage of cell viability was calculated as described previously.

[2] = test system: two breast cancer cell lines; design: method as in earlier work; details: cited from earlier work
[3] = test system: Cyclin B1, CDK1, BubR1, Aurora B; assay: Western blot, cell-cycle related proteins in HeLa cells; assay type: cell-based, human; details: HeLa, 0.21, 0.42 and 1 μM, 24 h
Description: Western blot analysis was used to investigate protein expression levels. It was adopted by Suresh Kumar et al.. Briefly, 1 × 10^5 cells/flask was seeded and treated with MBIC in a dose-dependent manner for 24 h. Cells treated with colchicine and nocodazole served as positive controls. Cells were collected and lysed in RIPA buffer supplemented with a 10 μl protease inhibitor cocktail, sodium orthovanadate, and PMSF (Santa Cruz, USA). The lysate was stored at −80 °C until further use. A 40 μg of sample protein was resolved on 10 % SDS-PAGE and transferred to a polyvinylidene difluoride (PVDF) membrane (Merck Millipore, USA). The membrane was blocked in 5 % BSA for 1 h at room temperature following an overnight incubation at 4 °C with the following primary antibodies: Anti-Cyclin B1, anti-CDK1, anti-BubR1, anti-Aurora B, anti-cleaved PARP, anti-cleaved caspase-3/7/9, anti-Bcl-2 and anti-Bax (1:1000) (Cell Signaling Technology (CST), USA), mouse anti β-actin (1:40000) (Sigma-Aldrich, USA) antibodies.
Membranes were washed with 1X TBS-T prior to incubating with HRP-conjugated goat anti-mouse or anti-rabbit secondary antibodies for 2 h at room temperature. Membranes were washed 3 times with 1X TBS-T to remove excess antibodies before the proteins-antibody complex was detected with Amersham ECL prime western blotting detection reagent (GE Healthcare, USA). Western blot images were quantified and processed by ImageJ software (NIH, USA).

[4] = molecular target: T1, tubulin (Sus scrofa, UniProt P02550+P02554); assay: Tubulin polymerization assay; assay type: biochemical; details: 10 μM drug, 3 mg/ml tubulin, 37 °C, 340 nm; untreated 12 mOD/min
T1 construct: purchased Cytoskeleton BK011P
Description: To investigate the effect of MBIC on tubulin polymerization, a fluorescence-based tubulin polymerization assay kit (Cytoskeleton-Cat. # BK011P) was used according to the manufacturer’s protocol. Briefly, 200 μl of pure tubulin protein was re-suspended in 420 μl of ice cold Tubulin Polymerization Buffer (TPB) to give a final concentration of 3 mg/ml tubulin, supplemented with 80 mM PIPES, 2 mM MgCl2, 0.5 mM EGTA, 1 mM GTP, 20 % (v/v) glycerol. 100 μl of tubulin reaction mixture were added to each well in a 96-well plate containing the selected concentration of MBIC (10 μM). […] Samples were mixed well and the tubulin assembly was monitored by an increase in fluorescence emission at 340 nm in kinetic mode for 120 min at 37 °C using a plate reader (Infinite® 200 PRO—Tecan plate reader, USA).

[5] = test system: HeLa cells; assay: Multiparameter cytotoxicity assay (Cellomics HCS); assay type: cell-based, human; details: 24 h
Description: The critical apoptotic events in cervical cancer including cell permeability, mitochondrial membrane potential (MMP), cytochrome c release and total nuclear intensity after treatment with MBIC were determined using the Cellomics Multiparameter Cytotoxicity 3 Kit. Briefly, 1 × 10 ^4 cells/well were seeded in a 96-well plate and incubated for 24 h prior to treatment with MBIC at various concentrations. At 24 h post treatment, cells were stained with cell permeability and MMP dye and further incubated for 1 h. Stained cells were fixed and permeabilized with 4 % formaldehyde and 0.1 % Triton X-100 in PBS, respectively. Cells were washed twice with 1X PBS prior to blocking with 3 % bovine serum albumin.
Cells were rinsed twice with Wash Buffer I (1X PBS) and incubated with 50 μl/well of Cytochrome c primary antibody. After 60 min, the plate was washed with 1X Wash Buffer and subsequently, 50 μl of goat anti-mouse secondary antibodies conjugated with DyLight 649 were added into each well. Cells were rinsed twice with Wash Buffer I (1X PBS). Hoechst 33342 was added into the staining solution to stain the nucleus. Stained cells in the 96-well plates were analyzed using ArrayScan High Content Screening (HCS) system (Thermo Scientific, USA).

[6] = test system: A549 cells; assay: MTT cytotoxicity assay, A549; assay type: cell-based, human; details: for IC50: Homo sapiens, MTT
From the text: as §1, §2

T1 sequence (P02550 whole entry): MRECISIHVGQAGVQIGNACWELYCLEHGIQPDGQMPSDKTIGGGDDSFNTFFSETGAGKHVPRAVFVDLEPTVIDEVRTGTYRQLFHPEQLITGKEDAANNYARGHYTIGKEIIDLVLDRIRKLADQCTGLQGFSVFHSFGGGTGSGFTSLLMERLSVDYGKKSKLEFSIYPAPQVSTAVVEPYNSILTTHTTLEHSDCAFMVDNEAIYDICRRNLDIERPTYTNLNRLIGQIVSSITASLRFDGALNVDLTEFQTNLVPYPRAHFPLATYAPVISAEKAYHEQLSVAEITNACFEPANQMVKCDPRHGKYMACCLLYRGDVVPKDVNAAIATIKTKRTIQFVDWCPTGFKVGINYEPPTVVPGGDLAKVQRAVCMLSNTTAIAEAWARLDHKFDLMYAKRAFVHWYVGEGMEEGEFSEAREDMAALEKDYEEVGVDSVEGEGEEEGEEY
T1 sequence (P02554 whole entry): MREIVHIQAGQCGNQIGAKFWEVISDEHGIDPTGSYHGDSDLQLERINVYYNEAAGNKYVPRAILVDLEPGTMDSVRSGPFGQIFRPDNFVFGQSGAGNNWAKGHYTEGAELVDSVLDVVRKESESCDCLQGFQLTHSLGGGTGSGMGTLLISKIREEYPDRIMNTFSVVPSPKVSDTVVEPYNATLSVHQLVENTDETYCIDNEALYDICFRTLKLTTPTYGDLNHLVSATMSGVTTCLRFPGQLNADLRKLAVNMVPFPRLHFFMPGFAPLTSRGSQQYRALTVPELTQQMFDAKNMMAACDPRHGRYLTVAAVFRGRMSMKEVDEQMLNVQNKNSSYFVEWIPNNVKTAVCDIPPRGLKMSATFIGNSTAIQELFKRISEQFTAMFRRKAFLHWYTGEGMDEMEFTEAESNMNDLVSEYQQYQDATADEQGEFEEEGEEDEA

- Tubulin polymerization maximal velocity (Vmax) [4]: 2.45 mOD/min
Compound: COC(=O)c1ccc2[nH]c(-c3cc(F)ccc3O)nc2c1 [MBIC, Methyl 2-(5-fluoro-2-hydroxyphenyl)-1H-benzo[d]imidazole-5-carboxylate]
- IC50 ([1]; HepG-2, 24 hours): 2.92 ± 0.1 µM
- IC50 ([1]; HepG-2, 48 hours): 1.03 ± 0.09 µM
- SI (Selectivity Index) ([1]; IC50 WRL-68 / IC50 HepG-2, 24 hours): 3.45
- SI (Selectivity Index) ([1]; IC50 WRL-68 / IC50 HepG-2, 48 hours): 6.95
- cytotoxic effect compared to cisplatin [2]: potent cytotoxic effect
- Aurora B protein level (Western blot) [3]: down-regulated
- BubR1 protein level (Western blot) [3]: up-regulated
- CDK1 protein level (Western blot) [3]: up-regulation
- Cyclin B1 protein level (Western blot) [3]: up-regulation
- cytochrome c release ([5]; 0.2 and 0.4 μM): considerable elevation
- cell number (loss of cells) ([5]; 0.2 and 0.42 μM): dose-dependent loss of cells
- membrane permeability ([5]; 0.2 and 0.42 μM): increase of membrane permeability
- mitochondrial membrane potential (MMP, Δψm) ([5]; 0.2 and 0.42 μM): exhaustion of MMP
- IC50 ([6]; A549, 24 hours): 1.29 ± 0.07 µM
- IC50 ([6]; A549, 48 hours): 0.53 ± 0.1 µM
- SI (Selectivity Index) ([6]; IC50 WRL-68 / IC50 A549, 24 hours): 7.82
- SI (Selectivity Index) ([6]; IC50 WRL-68 / IC50 A549, 48 hours): 13.50
